In general, EC50 refers to the midpoint of the concentration-response curve. For orientation: IC50 means the point on the concentration scale where inhibition reaches its midpoint. In general, viability refers to a per cent measure of how many cells are alive, often set against a control.

Like-named read-outs stand apart in the source and are kept apart here.

Consider eight compounds from US20250152599A1 (priority 2020, published 2025).

The test system of data set [1] is novel coronavirus (SARS-CoV-2). The data set can be described thus: microbe, parasite or virus in culture. The format is cell-based. Particulars: for EC50: Severe acute respiratory syndrome coronavirus 2, Vero, read-out: EC50 for inhibiting the novel coronavirus.
For a further data set, the system named is Vero cells. Particulars: for CC10: African green monkey.
A further data set relates to MRC5 cells. Particulars: human.
Data set [2] deals with HCoV 229E.
Data set [3] in a line: in vitro.
The next data set deals with novel coronavirus. The data set can be described thus: Inhibitory effect of PI0101 on the novel coronavirus, 96-well plate, 76 hours. Particulars: Severe acute respiratory syndrome coronavirus 2, novel coronavirus 100 TCID50/well. It is filed as cell-based, SARS-CoV-2.
The nature of data set [4]: in vitro. Particulars: human.
Data set [5] relates to HCoV 229E. The data set can be described thus: microbe, parasite or virus in culture. Particulars: unidentified human coronavirus.
The next data set deals with PI4KIIIα (Homo sapiens, UniProt P42356). Particulars: read-out: IC50 of inhibitory effect on PI4KIIIα; cited from earlier work.
Chain of PI4KIIIα (P42356 whole entry): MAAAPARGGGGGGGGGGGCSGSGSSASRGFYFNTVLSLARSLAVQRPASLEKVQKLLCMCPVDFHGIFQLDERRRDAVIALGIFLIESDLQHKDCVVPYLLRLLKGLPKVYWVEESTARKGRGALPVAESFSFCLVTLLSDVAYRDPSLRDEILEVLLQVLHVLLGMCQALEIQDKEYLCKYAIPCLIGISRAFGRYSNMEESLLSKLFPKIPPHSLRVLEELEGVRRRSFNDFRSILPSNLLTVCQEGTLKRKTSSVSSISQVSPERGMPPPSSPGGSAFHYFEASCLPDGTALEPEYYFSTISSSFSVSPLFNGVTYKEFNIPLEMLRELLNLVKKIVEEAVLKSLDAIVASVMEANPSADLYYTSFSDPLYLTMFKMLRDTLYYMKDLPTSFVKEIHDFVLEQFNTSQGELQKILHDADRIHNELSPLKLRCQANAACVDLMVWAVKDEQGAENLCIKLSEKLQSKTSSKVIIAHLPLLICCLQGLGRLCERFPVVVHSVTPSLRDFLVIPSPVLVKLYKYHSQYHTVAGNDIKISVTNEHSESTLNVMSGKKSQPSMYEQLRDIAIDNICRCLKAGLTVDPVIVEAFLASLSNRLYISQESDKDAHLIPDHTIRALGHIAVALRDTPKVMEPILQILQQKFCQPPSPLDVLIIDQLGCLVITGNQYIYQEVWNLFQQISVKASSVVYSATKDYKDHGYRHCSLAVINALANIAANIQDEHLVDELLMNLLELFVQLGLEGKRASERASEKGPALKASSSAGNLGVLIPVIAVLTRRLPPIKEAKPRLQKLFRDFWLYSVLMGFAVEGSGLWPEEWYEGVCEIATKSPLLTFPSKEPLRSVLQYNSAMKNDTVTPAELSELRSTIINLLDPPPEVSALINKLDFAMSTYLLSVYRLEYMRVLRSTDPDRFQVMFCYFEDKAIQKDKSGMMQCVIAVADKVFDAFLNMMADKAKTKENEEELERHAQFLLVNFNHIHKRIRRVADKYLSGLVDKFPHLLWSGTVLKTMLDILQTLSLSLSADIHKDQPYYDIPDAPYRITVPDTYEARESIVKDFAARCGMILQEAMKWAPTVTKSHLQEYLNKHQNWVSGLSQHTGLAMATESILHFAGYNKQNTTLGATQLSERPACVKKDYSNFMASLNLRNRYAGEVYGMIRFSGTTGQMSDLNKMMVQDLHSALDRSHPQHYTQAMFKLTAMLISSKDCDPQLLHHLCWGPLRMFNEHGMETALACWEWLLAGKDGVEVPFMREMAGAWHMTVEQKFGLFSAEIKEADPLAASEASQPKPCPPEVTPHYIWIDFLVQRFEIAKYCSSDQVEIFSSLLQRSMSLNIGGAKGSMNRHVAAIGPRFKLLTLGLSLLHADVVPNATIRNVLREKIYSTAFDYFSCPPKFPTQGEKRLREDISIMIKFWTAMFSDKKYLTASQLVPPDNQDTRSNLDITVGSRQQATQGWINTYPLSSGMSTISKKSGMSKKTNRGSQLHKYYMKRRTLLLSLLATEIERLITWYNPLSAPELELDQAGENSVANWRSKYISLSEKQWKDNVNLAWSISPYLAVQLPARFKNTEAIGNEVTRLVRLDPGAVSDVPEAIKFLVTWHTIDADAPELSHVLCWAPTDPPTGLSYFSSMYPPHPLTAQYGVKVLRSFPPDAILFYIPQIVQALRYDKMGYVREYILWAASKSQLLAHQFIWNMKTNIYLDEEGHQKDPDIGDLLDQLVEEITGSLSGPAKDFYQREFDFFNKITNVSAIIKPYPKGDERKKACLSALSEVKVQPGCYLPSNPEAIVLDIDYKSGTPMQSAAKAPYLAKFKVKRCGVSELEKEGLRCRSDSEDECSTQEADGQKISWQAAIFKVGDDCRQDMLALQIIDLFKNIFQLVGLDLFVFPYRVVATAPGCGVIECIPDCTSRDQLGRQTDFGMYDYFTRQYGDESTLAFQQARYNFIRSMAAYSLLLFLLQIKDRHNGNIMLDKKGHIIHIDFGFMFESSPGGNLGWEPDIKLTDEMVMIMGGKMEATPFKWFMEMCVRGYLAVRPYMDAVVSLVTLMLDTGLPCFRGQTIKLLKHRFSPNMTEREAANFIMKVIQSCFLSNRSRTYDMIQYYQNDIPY
Data set [6] in a line: in vitro. Particulars: African green monkey.

As for `CC(=O)Nc1nc(C)c(-c2ccc(Cl)c(S(=O)(=O)NCCO)c2)s1` [PIK-93], the “inhibitory effect on the novel coronavirus” value in data set [1] was “no significant inhibitory effect”. The “toxic effect on Vero cells” value in the data set with Vero cells was “no significant toxic effect”.

`O=[As]c1ccc(NS(=O)(=O)c2ccc(C(F)(F)F)cc2)cc1` (stereo not drawn) [YL-11] registered a CC50 in the data set with MRC5 cells of 6.37 µM. Further, in the data set with HCoV 229E [2], it took 2.1 µM to reach a half-maximal effect (EC50) and the “SI (CC50/EC50)” value turned out to be 3.03.

In turn, `O=[As]c1ccc(NS(=O)(=O)c2ccc(F)cc2)cc1` (stereo not drawn) [YL-09] registered a CC50 in the data set with MRC5 cells of 13.9 µM.

Turning to `CCN(CC)CCCC(C)Nc1ccnc2cc(Cl)ccc12` (stereo not drawn) [Chloroquine phosphate], in [1], the EC50 came out at 50 µM. Besides, the CC10 in the data set with Vero cells turned out to be 120 µM.

With `COc1ccc(S(=O)(=O)Nc2ccc([As]=O)cc2)cc1` (stereo not drawn) [YL-10], the CC50 in the data set with MRC5 cells turned out to be 14 µM. Moreover, in the data set with HCoV 229E [2], the EC50 was found to be 3.95 µM and the “SI (CC50/EC50)” value was found to be 3.55.

Take `COc1ccc2c(O[C@@H]3C[C@H]4C(=O)N[C@]5(C(=O)NS(=O)(=O)C6CC6)C[C@H]5/C=C\CCCCN(C)C(=O)[C@@H]4C3)cc(-c3nc(C(C)C)cs3)nc2c1C` [PI0101, Simeprevir]: the CC50 is over 10 µM in the data set “in vitro [3]” and 8.46 µM in “in vitro [4]”. In addition, the EC50 was 3.85 µM in the data set on novel coronavirus and 3.41 µM in the data set with HCoV 229E [5] (MRC5, 72 h). The “SI (CC50/EC50)” value with HCoV 229E [2] (the second test) amounted to 2.48. Besides, the IC50 on PI4KIIIα is 0.2 µM.

Take `CCC(CC)COC(=O)[C@H](C)N[P@](=O)(OC[C@H]1O[C@@](C#N)(c2ccc3c(N)ncnn23)[C@H](O)[C@@H]1O)Oc1ccccc1` [Remdesivir]: the figures for the CC50 in the data set “in vitro [6]” and with MRC5 cells were 208 µM and 30.7 µM, respectively. This compound also registered a viability in the data set “in vitro [6]” of over 90%. Also, the EC50 amounted to 0.52 µM in data set [1] and 0.0264 µM with HCoV 229E [5] (MRC5). In addition, the CC10 in the data set with Vero cells is 55 µM. The “SI (CC50/EC50)” value is listed as over 3785.01 with HCoV 229E [2] (the first test) and 2338.60 in the data set on HCoV 229E [2] (the second test).

For `O=[As]c1ccc(NC(=O)CCc2ccccc2)cc1` (stereo not drawn) [YL-05], the CC50 in the data set “in vitro [4]” was over 0.8 µM. This compound also registered an EC50 in the data set with HCoV 229E [5] (MRC5, 72 h) of over 0.2 µM.
